For one compound, IC50 and Activity results are on record in ChEMBL document CHEMBL4385653, “Design, synthesis, biological evaluation of benzoyl amide derivatives containing nitrogen heterocyclic ring as potential VEGFR-2 inhibitors” (Bioorg Med Chem, 2019).

Molecules are shown by their SMILES.

The test system of one assay is HepG2. Briefly: Antiproliferative activity against human HepG2 cells assessed as inhibition of cell proliferation incubated for 48 hrs by MTT assay. Conditions: HepG2, 48 h. It counts as functional, cell-based.
Assay [1] deals with MCF7. Briefly: Induction of apoptosis in human MCF7 cells incubated for 24 hrs by Annexin V-FITC/PI double staining based flow cytometry analysis. It counts as functional, cell-based.
In assay [2] the test system is MCF7. Briefly: Suppression of mitochondrial membrane potential in human MCF7 cells assessed as red fluorescent cells level at 4 uM incubated for 12 hrs by rhodamine-123 dye based flow cytometry analysis (reference value: 99.71%). It counts as functional. For orientation: A flow cytometer gives signals particle by particle.
For assay [3], the system named is MCF7. Briefly: Induction of apoptosis in human MCF7 cells assessed as viable cells level at 2 uM incubated for 24 hrs by Annexin V-FITC/PI double staining based flow cytometry analysis (reference value: 82%). It counts as functional.
Assay [4] relates to MCF7. Briefly: Induction of apoptosis in human MCF7 cells assessed as viable cells level at 4 uM incubated for 24 hrs by Annexin V-FITC/PI double staining based flow cytometry analysis (reference value: 82%). It counts as functional.
Assay [5] has as its system MCF7. As to the kind of experiment: Induction of apoptosis in human MCF7 cells assessed as early apoptotic cells level at 4 uM incubated for 24 hrs by Annexin V-FITC/PI double staining based flow cytometry analysis (reference value: 1.06%). It counts as functional.
Assay [6] deals with MCF7. As to the kind of experiment: Induction of apoptosis in human MCF7 cells assessed as early apoptotic cells level at 8 uM incubated for 24 hrs by Annexin V-FITC/PI double staining based flow cytometry analysis (reference value: 6.37%). It counts as functional.
The test system of assay [7] is MCF7. Briefly: Induction of apoptosis in human MCF7 cells assessed as early apoptotic cells level at 4 uM incubated for 36 hrs by Annexin V-FITC/PI double staining based flow cytometry analysis (reference value: 1.06%). It counts as functional.
Assay [8] deals with MCF7. As to the kind of experiment: Suppression of mitochondrial membrane potential in human MCF7 cells assessed as green fluorescent cells level at 8 uM incubated for 12 hrs by rhodamine-123 dye based flow cytometry analysis (reference value: 0.29%). It counts as functional.
Assay [9] deals with MCF7. Briefly: Antiproliferative activity against human MCF7 cells assessed as inhibition of cell proliferation incubated for 48 hrs by MTT assay. It counts as functional, cell-based. Conditions: MCF7, 48 h. In general terms: Tetrazolium assays rely on reduction of a dye to a coloured formazan, in cell work by metabolically active cells.

For `Cc1ccc(-n2cc(NC(=O)c3cccc(NS(=O)(=O)c4ccc(Cl)cc4)c3)cn2)cc1`, the IC50 (usually the concentration at which inhibition is half-maximal) amounted to 2440 nM with HepG2 and 1080 nM in the assay with MCF7 [9]. Further, the Activity entry was “Dose-dependent effect” in the assay on MCF7 [1]; 80.6% in the assay with MCF7 [2]; 70.3% in the assay on MCF7 [3]; 64% with MCF7 [4]; 21.6% in the assay on MCF7 [5]; 9.62% in the assay with MCF7 [6]. The Activity with MCF7 [7] stood at 30.4%; with MCF7 [8] it was 37.15%.
